Where a name gives a salt, the structure may show the parent alone.
System: MRC5-hT fibroblasts expressing HCMV UL38 (glucose-free medium)
Assay: rescue of cell number (AUC of dose-response) relative to untreated glucose-free control; higher = stronger protection from glucose-starvation-induced cell death
Conditions: glucose: 0 (glucose-free DMEM); 96 h; dose range 0.001-20, 10-point curve µM
Procedure: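 MRC5-hT fibroblasts stably expressing HCMV UL38 were seeded in 384-well plates, serum-starved for 24 h, switched to glucose-free DMEM, and pin-transferred with a metabolism-focused compound library as 10-point dose curves (1 nM to 20 µM; n=2). Nuclei were counted by Hoechst imaging 96 h after glucose withdrawal.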

| SMILES | rescue of cell number [%] |
| --- | --- |
| COc1cccc2c(NCc3ccccc3)nc(-n3c(N)nc4ccccc43)nc12 [ML_240] | 50.1 |
| CCOc1ccccc1-n1c(C(C)N2CCN(C(=O)COc3ccc(Cl)cc3)CC2)nc2ccccc2c1=O (stereo unspecified) [Erastin] | 68.6 |
| CC[C@]1(O)C[C@H]2CN(CCc3c([nH]c4ccccc34)[C@@](C(=O)OC)(c3cc4c(cc3OC)N(C=O)[C@H]3[C@@](O)(C(=O)OC)[C@H](OC(C)=O)[C@]5(CC)C=CCN6CC[C@]43[C@@H]65)C2)C1 [Vincristine_sulfate] | 29.6 |
| CC(C)c1nc(N(C)S(C)(=O)=O)nc(-c2ccc(F)cc2)c1/C=C/[C@@H](O)C[C@@H](O)CC(=O)O [Rosuvastatin] | 45.3 |
| Cc1ccccc1CN1C(=O)C2=C(CCN(Cc3ccccc3)C2)N2CCN=C12 [ONC-201] | 24 |
| CN1Cc2c(N)cccc2C(c2ccccc2)C1 (stereo unspecified) [Nomifensine] | -5.61 |
| Cc1cc(=O)oc2c(C=O)c(O)ccc12 [4mu8C] | 23.6 |
| CCCCC/C=C/C(=O)CCc1ccc(O)c(OC)c1 [Shogaol] | -6.33 |
| Cc1c2oc3c(C)ccc(C(=O)N[C@@H]4C(=O)N[C@H](C(C)C)C(=O)N5CCC[C@H]5C(=O)N(C)CC(=O)N(C)[C@@H](C(C)C)C(=O)O[C@@H]4C)c3nc-2c(C(=O)N[C@@H]2C(=O)N[C@H](C(C)C)C(=O)N3CCC[C@H]3C(=O)N(C)CC(=O)N(C)[C@@H](C(C)C)C(=O)O[C@@H]2C)c(N)c1=O [Actinomycin_D] | 27.1 |
| Cc1ccc(-c2cc(C(F)(F)F)nn2-c2ccc(S(N)(=O)=O)cc2)cc1 [Celecoxib] | 68.1 |
| Cc1c(-c2ccc(-c3ccccc3F)cc2)nc2ccc(F)cc2c1C(=O)O [Brequinar] | 126 |
| COc1c(C)c2c(c(O)c1C/C=C(\C)CCC(=O)O)C(=O)OC2 [Mycophenolic_Acid] | 51.6 |
| CCC(C)N(C)C(=O)c1cc2ccccc2c(-c2ccccc2Cl)n1 (stereo unspecified) | 15.2 |
| C[C@@H]1CC[C@H]2[C@@H](C)C(=O)O[C@@H]3O[C@@]4(C)CC[C@@H]1[C@]32OO4 [Artemisinin] | 15.9 |
| CN(CCOc1ccc(CC2SC(=O)NC2=O)cc1)c1ccccn1 (stereo unspecified) [Rosiglitazone] | 4.26 |
| CC(C)C[C@@H](C(=O)N[C@H](C(=O)OC1CCCC1)c1ccccc1)[C@H](O)C(=O)NO [CHR_2797] | -14.9 |
| C[C@H]1[C@H](OC(=O)CCC(=O)O)O[C@@H]2O[C@@]3(C)CC[C@H]4[C@H](C)CC[C@@H]1[C@@]24OO3 [Artesunate] | 9.86 |
| CC(c1cc2ccccc2s1)N(O)C(N)=O (stereo unspecified) [Zileuton] | -16.9 |
| O=C(c1cc(Cc2n[nH]c(=O)c3ccccc23)ccc1F)N1CCN(C(=O)C2CC2)CC1 [Olaparib] | -15.1 |
| Cc1cccc(CN2CCN(C(c3ccccc3)c3ccc(Cl)cc3)CC2)c1 (stereo unspecified) [Meclizine] | 31.4 |
| CC(=O)c1ccc2c(c1)Nc1ccccc1S2 [ML_171] | 23 |
| COc1cc(/C=C/C(=O)CC(=O)/C=C/c2ccc(O)c(OC)c2)ccc1O [Curcumin] | 32 |
| CCCCCCCC/C=C\CCCCCCCC(=O)NCCO [Oleylethanolamide] | -13.2 |
| O=C(Cc1ccccc1)Nc1nnc(CCSCCc2nnc(NC(=O)Cc3ccccc3)s2)s1 [BPTES] | -24.3 |
| CCc1nc(N)nc(N)c1-c1ccc(Cl)cc1 [Pyrimethamine] | -35.1 |
| Cc1ccccc1C(C(=O)NC1CCCC1)N(C(=O)Cn1cnc2ccccc21)c1cccc(F)c1 (stereo unspecified) [ML309] | 94.6 |

| SMILES | rescue of cell number [%] |
| --- | --- |
| CCCCN1C[C@H](O)[C@@H](O)[C@H](O)[C@H]1CO [Miglustat] | 5.72 |
| Cc1nc2ccc(C(=O)N3CCC4(CC3)CC(=O)c3c(cnn3C(C)C)C4)cc2[nH]1 | 31.8 |
| CCCCCCCCCCCCC/C=C/[C@@H](O)[C@H](CO)N(C)C [N_N_Dimethylsphingosine] | 18.1 |
| O=C(O)CSc1nnc(Br)n1-c1ccc(C2CC2)c2ccccc12 [Lesinurad] | -28.1 |
| Oc1cccnc1NC(c1ccc(Cl)cc1)c1ccc2cccnc2c1O (stereo unspecified) [Adaptaquin] | 33.2 |
| Nc1ncnc2c1C(=O)N(c1ccc([C@H]3CC[C@H](CC(=O)O)CC3)cc1)CCO2 | -20.9 |
| OCCN1C[C@H](O)[C@@H](O)[C@H](O)[C@H]1CO [Miglitol] | -37.1 |
| NCCCNCCSP(=O)(O)O [Amifostine] | 110 |
| Oc1ccc(Nc2nc(-c3ccc(Cl)cc3)cs2)cc1 [SKI_II] | 0.0721 |
| O=C(NNc1ccccc1)c1ccncc1 [PluriSln_1] | 41.4 |
| CN(C/C=C/C#CC(C)(C)C)Cc1cccc2ccccc12 [Terbinafine_HCl] | -15.4 |
| CC(C)c1cc(C(C)C)c(CC(=O)NS(=O)(=O)Oc2c(C(C)C)cccc2C(C)C)c(C(C)C)c1 [Avasimibe] | 7.22 |
| C=CCN(C)CCCCCCOc1ccc(C(=O)c2ccc(Br)cc2)c(F)c1 [Ro_48_8071] | -2.22 |
| OC(c1cc(C(F)(F)F)nc2c(C(F)(F)F)cccc12)C1CCCCN1 (stereo unspecified) [Mefloquine] | -12 |
| Cc1cc2c(C(C)C)c(O)c(O)c(C=O)c2c(O)c1-c1c(C)cc2c(C(C)C)c(O)c(O)c(C=O)c2c1O [Gossypol] | 43.9 |
| c1cc(-c2cnn3cc(-c4ccc(OCCN5CCCCC5)cc4)cnc23)ccn1 [Dorsomorphin] | 66.2 |
| CN(Cc1ccc(C(C)(C)C)cc1)Cc1cccc2ccccc12 [Butenafine] | 14.4 |
| NC(=O)c1ncn([C@@H]2O[C@H](CO)[C@@H](O)[C@H]2O)c1N [AICAR] | -30.3 |
| Cc1cc(/C=C/c2ccc3cc(N(C)C)ccc3[n+]2C)c(C)n1-c1ccccc1 [Pyrvinium_pamoate] | 5.84 |
| CCCCNc1cc(C(=O)O)cc(S(N)(=O)=O)c1Oc1ccccc1 [Bumetanide] | -20.9 |
| N#Cc1cn([C@@H]2O[C@H](CO)[C@@H](O)[C@H]2O)c2ncnc(N)c12 [Toyocamycin] | 9.71 |
| C=C1C(=O)O[C@H]2[C@H]1CC/C(C)=C/CC[C@@]1(C)O[C@@H]21 [Parthenolide] | 34.9 |
| Cc1nc(-c2ccc(OCC(C)C)c(C#N)c2)sc1C(=O)O [Febuxostat] | 73.9 |
| Nc1nc2c(c(=O)[nH]1)C[C@@H](CCc1ccc(C(=O)N[C@@H](CCC(=O)O)C(=O)O)cc1)CN2 [Lometrexol] | -30.2 |
| OC[C@H]1O[C@@H](c2ccc(F)c(Cc3cc4ccccc4s3)c2)[C@H](O)[C@@H](O)[C@@H]1O [Ipragliflozin] | -33.8 |
| CC(=O)c1c(O)c(C)c(O)c(Cc2c(O)c3c(c(C(=O)/C=C/c4ccccc4)c2O)OC(C)(C)C=C3)c1O [Rottlerin] | 24.6 |

| SMILES | rescue of cell number [%] |
| --- | --- |
| Nc1nc(=S)c2[nH]cnc2[nH]1 [6_Thioguanine] | 42.9 |
| CC1(C)CCC2=C(O1)c1ccccc1C(=O)C2=O [beta_Lapachone] | 70.8 |
| Cc1ccccc1C(C(=O)NC1CCCCC1)N(C(=O)Cn1ccnc1C)c1cccc(F)c1 (stereo unspecified) [AGI_5198] | 48.3 |
| COC(=O)/C=C/C(=O)OC [Dimethyl fumarate] | 67.2 |
| COc1cc(O)c2c(c1)C(=O)c1cc(C)cc(O)c1C2=O [Physcion] | -37.6 |
| CC1=CC(=O)c2ccccc2C1=O [Menadione] | 23.5 |
| C/C(O)=C(\C#N)C(=O)Nc1ccc(C(F)(F)F)cc1 [Teriflunomide] | -6.67 |
| CC(=O)N[C@H]1[C@@H](O[C@@H]2O[C@H](CC(O)[C@H]3O[C@@H](n4ccc(=O)[nH]c4=O)[C@H](O)[C@@H]3O)[C@H](O)[C@H](O)[C@H]2NC(=O)/C=C/CC(C)C)O[C@H](CO)[C@@H](N)[C@@H]1O (stereo partly specified) [Tunicamycin] | 3.6 |
| O=C(O)CN1C(=O)c2cccc3cccc(c23)C1=O [Alrestatin] | 4.91 |
| Nc1ccn([C@H]2CC[C@@H](CO)O2)c(=O)n1 [Zalcitabine] | 9.86 |
| C=CCNC1=C2C[C@@H](C)C[C@H](OC)[C@H](O)[C@@H](C)/C=C(\C)[C@H](OC(N)=O)[C@@H](OC)/C=C\C=C(/C)C(=O)NC(=CC1=O)C2=O [17_AAG] | 54.1 |
| COc1cc(/C=C/C(=O)N2CCC=CC2=O)cc(OC)c1OC [Piperlongumine] | 36.8 |
| Cc1cc(C)nc(NC(=S)N2CCN(Cc3ccc(C(F)(F)F)cc3)CC2)c1 [NCT-503] | -9.82 |
| O=C1N[C@@H]2[C@@H](O)[C@@H](O)[C@H](O)[C@@H](CO)N2C1=O [Kifunensine] | 123 |
| CN1C(=O)[C@@]23C[C@]4([C@]56C[C@@]78SS[C@@](CO)(C(=O)N7[C@H]5Nc5ccccc56)N(C)C8=O)c5ccccc5N[C@@H]4N2C(=O)[C@]1(CO)SS3 [Chaetocin] | 11.4 |
| Cc1cccc(CC(=O)N2CCc3c2ccc(-c2cn(C)c4ncnc(N)c24)c3F)n1 | 70.7 |
| Cc1ccc([C@@H]2O[C@H](CO)[C@@H](O)[C@H](O)[C@H]2O)cc1Cc1ccc(-c2ccc(F)cc2)s1 [Canagliflozin] | 108 |
| CCC(C)SSc1ncc[nH]1 (stereo unspecified) [PX_12] | -1.42 |
| NCCc1ccc(S(=O)(=O)F)cc1 [AEBSF] | 50.3 |
| CC1=C(/C=C/C(C)=C/C=C/C(C)=C/C(=O)Nc2ccc(O)cc2)C(C)(C)CCC1 [Fenretinide] | 12.2 |
| Fc1ccc(CNc2ncnc3ccc(F)cc23)cc1 [Spautin_1] | 2.13 |
| Cc1[nH]nc(C(F)(F)F)c1Cc1sc2c(c1C(=O)N1C[C@](C)(O)CO1)c(=O)n(C)c(=O)n2C(C)C [AZD3965] | 0.308 |
| CN(C)CC[C@H](CSc1ccccc1)Nc1ccc(S(=O)(=O)NC(=O)c2ccc(N3CCN(Cc4ccccc4-c4ccc(Cl)cc4)CC3)cc2)cc1[N+](=O)[O-] [ABT_737] | -33.6 |
| Oc1ncnc2[nH]ncc12 [Allopurinol] | -22.3 |
